US20240101600A1, “FIBROBLAST GROWTH FACTOR RECEPTOR (FGFR)-TARGETING ANTAGONISTIC SHORT PEPTIDE” (WENZHOU MEDICAL UNIVERSITY, priority 2019, published 2024)
Where no end group is shown, it is not given here.

Experiments:
FGFR1C = target: T1, FGFR1C (Homo sapiens, UniProt P11362); assay: SPR detection of interaction with FGFR1C; format: binding
T1 sequence (P11362 22-376 limits assumed): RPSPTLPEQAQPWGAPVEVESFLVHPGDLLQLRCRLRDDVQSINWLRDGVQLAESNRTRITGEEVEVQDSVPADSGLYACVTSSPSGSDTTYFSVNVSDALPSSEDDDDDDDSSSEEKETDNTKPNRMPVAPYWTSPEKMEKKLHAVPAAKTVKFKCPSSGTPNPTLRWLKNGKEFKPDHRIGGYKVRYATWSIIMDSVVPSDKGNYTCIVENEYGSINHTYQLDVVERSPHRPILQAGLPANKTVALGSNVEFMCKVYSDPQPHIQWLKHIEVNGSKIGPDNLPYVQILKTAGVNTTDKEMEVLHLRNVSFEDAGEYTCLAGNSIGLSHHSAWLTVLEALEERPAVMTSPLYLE
Protocol: Amino acid sequence of P9 degraded short peptide P48 was analyzed using Amber11 program. An initial structure of the P9 and P48 peptide chains was constructed using a sequence command in a Tleap module of the Amber11 program. Hydrogen atoms were added using the Tleap module of the Amber11 program, a […] TIP3P solvent box was added at a distance of 10 Å from the peptide chain, and counter ions were added to the two systems to keep the system electrically neutral. The system was subjected to 20-ns NPT system simulation to obtain an optimal spatial structure. […] The last 1 ns of trajectory obtained by molecular dynamics simulation of the system was selected to calculate the binding free energy, the molecules of the solvent of water and counter ion were deleted, and conformation was recorded every 10 ps to obtain a total of 101 structures. The binding free energy between FGF2 and FGFR1 were calculated by a molecular mechanics-generalized born surface area (MM-GBSA) method. The binding free energy and energy decomposition of amino acid residues were calculated using an MMPBA.py script provided by the Amber11. […] After bFGF and FGFR1 flew into the sensor chip, P48 (50 μM, 100 μM, 200 μM, 300 μM and 400 μM) was injected into a sensor surface, and the obtained data was analyzed using BIAevaluation software. […]

FGFR1 = FGFR1 (Homo sapiens, UniProt P11362); assay: Western blot of FGFR1 signaling pathway in gastric cancer cells SGC-7901 and MGC-803; format: cell-based; set-up: endogenous in cells; host or cells: Hela229; NCI-H460; SGC-7901; MGC-803
Protocol: Cervical cancer cells Hela229, melanoma B16-F10, lung cancer cells NCI-H460, gastric cancer cells SGC-7901 and MGC-803 were inoculated into 6-well plates, respectively. After growing adherently overnight, the cells were pretreated with P48 for 10 min or with AZD4547/SSR for 2 h, and incubated with bFGF for 15 min or with KGF for 20 min.

[1] = gastric cancer cell lines, bFGF stimulation

FGFR1, sequence (P11362 22-822): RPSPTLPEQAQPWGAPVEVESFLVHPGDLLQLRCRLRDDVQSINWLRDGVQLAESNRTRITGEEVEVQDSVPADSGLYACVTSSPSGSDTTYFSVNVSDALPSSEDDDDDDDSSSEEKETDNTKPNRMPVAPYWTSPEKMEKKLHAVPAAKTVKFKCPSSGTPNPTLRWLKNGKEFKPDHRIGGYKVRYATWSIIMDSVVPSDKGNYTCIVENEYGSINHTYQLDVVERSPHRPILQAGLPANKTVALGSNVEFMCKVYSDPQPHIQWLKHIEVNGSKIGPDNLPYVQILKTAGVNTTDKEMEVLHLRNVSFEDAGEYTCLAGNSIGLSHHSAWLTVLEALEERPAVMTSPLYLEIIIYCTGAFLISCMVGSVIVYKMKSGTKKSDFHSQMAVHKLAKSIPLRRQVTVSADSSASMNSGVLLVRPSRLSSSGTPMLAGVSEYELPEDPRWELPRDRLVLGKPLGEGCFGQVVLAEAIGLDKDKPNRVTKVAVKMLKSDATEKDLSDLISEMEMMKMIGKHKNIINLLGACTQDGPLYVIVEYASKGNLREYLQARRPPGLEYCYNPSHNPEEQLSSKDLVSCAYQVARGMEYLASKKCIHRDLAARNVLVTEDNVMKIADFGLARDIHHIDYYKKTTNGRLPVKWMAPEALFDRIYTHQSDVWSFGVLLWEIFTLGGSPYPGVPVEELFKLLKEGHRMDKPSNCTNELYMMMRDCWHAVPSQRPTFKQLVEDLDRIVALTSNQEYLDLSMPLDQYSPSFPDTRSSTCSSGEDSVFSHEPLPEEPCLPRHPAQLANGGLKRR

SPPRYPGGGS-NH2 [P48, Ser-Pro-Pro-Arg-Tyr-Pro-Gly-Gly-Gly-Ser-NH2]
binding to FGFR1C (FGFR1C): can be bound
rank of binding degree among FGFRs (FGFR1C): FGFR1C has the strongest binding degree
effect on KGF stimulation (FGFR1; SGC-7901, KGF 20 min): has no effect
effect on aFGF stimulation (FGFR1; SGC-7901, aFGF 15 min): has no effect
inhibition of FGFR1 activation under bFGF stimulation (FGFR1; SGC-7901, bFGF 15 min): can only inhibit the activation of FGFR1 induced by bFGF
inhibition of FGFR1 signaling pathway (FGFR1; gastric cancer (SGC-7901, MGC-803), bFGF stimulation): can inhibit the FGFR1 signaling pathway of cervical cancer, melanoma, lung cancer and gastric cancer in a concentration-dependent manner
activity on FGFR1 signaling compared with AZD4547 (FGFR1; [1]): weaker than that of AZD4547
inhibitory effect on FGFR1 signaling compared with SSR (FGFR1; [1]): comparable to that of the SSR
